The results in this text go back to patent US6861445B2, “3-Substituted-3-(substitutedsulfonyl or sulfanyl)pyrrolidine-2,5-diones useful for inhibition of farnesyl-protein transferase” (Wyeth Holdings Corporation, priority 2001, dated 2005).

A value given as a limit tells only on which side of the number the result lay.

The target of data set [1] is FPTase (K-Ras substrate) (Homo sapiens, UniProt P49354+P49356). Briefly: in vitro FTase Inhibition Assay, K-Ras as substrate for farnesylation. The data set is classed as biochemical. The conditions noted are these: K-Ras used as substrate for farnesylation. On the procedure:
(§1) The ability of the compounds of this invention to inhibit FPTase was evaluated in the standard pharmacological in vitro test procedures described below.
(§2) Enzyme test procedure: FPTase inhibition in vitro assay was performed according to James, G. L., Brown, M. S., and Goldstein, J. L., Methods in Enzymology, 1995, 255, 38-46; and Garcia, M. A., et al., J. Biol. Chem., 1993, 268, 18415-18420.
(§3) • Materials—Purified FPTase (Moomaw, J. F. and Casey, P. J., J. Biol. Chem., 1992, 267, 17438-17443), purified His6-Ras, inhibitor compounds at 10 mg/ml or 10 mM in 100% DMSO, ^3H-FPP (50,000 dpm/pmol) Amersham, TCA/SDS (6%/2%), TCA (6%), Glass fiber filters (0.22-0.45 m), vacuum manifold or 96 well filtration plates. • Methods—1. Dilute FPTase inhibitors from stock solutions to 2.5× in 2.5% DMSO, 10 mM DTT, 0.5% octyl-B-glucoside. 2. Solution #1 is added to FPTase reaction in a volume of […]. 3. Standard reaction mix, […], contains 50 mM Tris (7.5),[…], 3 mM MgCl2, 20 mM KCl, 5 mM DTT, 0.2% octyl-B-glucoside, 1% DMSO, […] His6-Ras, 10 ng FPTase, and various concentrations of FPTase inhibitors. 4. Incubate for 30-90 min at 25° C. 5. […] Add scintillant to filters, measure ^3H-FPP incorporation into Ras protein. • Analysis of Results—Percent inhibition by test compounds is determined by the following: […]. […]

In data set [2] the target is FPTase (H-Ras substrate) (Homo sapiens, UniProt P49354+P49356). The data set is described as follows: in vitro FTase Inhibition Assay, H-Ras as substrate for farnesylation. Type of data set: biochemical. The conditions noted are these: H-Ras used as substrate for farnesylation. On the procedure:
as §1, §2, §3

The compound `COc1ccc(S(=O)(=O)C2(CCCC#Cc3ccc(Cl)cc3)CC(=O)NC2=O)cc1` (stereo not shown) [3-[5-(4-Chlorophenyl)pent-4-ynyl]-3-(4-methoxybenzenesulfonyl)-pyrrolidine-2,5-dione] returned a melting point of 160 to 162 °C. In addition, the concentration for half-maximal inhibition (IC50) in data set [1] was greater than 1000 nM. This compound also yielded a half-maximal inhibitory concentration (IC50) in data set [2] of 140 nM.
In turn, `Cc1ccc(S(=O)(=O)C2(CC#Cc3ccc(Cl)cc3)CC(=O)NC2=O)cc1` (stereo not shown) [3-[-3-(4-Chlorophenyl)prop-2-ynyl]-3-(toluene-4-sulfonyl)pyrrolidine-2,5-dione] came in with a half-maximal inhibitory concentration (IC50) in data set [2] of 6500 nM.
